How the values were obtained:
Type in all cases: cell-based, human
[1] = test system: HeLa cells; assay: Annexin V-FITC/PI dual staining apoptosis assay; conditions: 48 h, control 6.44
Method: The extent of apoptosis was quantitatively measured using Annexin V-FITC/PI dual staining assay. HeLa cells were seeded into a six-well plate at 5 × 10^5 cells per well in 10% foetal calf serum (FBS)-DMEM into six-well plates and treated with different concentrations of the indicated compound 4d for 48 h. The cells were detached with 0.25% trypsin, washed with ice-cold PBS for twice and then resuspended in 1 × Binding buffer ([…]). The cells were stained with 5 μL of Annexin V-FITC and 5 μL of PI ([…]) to each tube. The cells were gently vortexed and incubated in the dark at room temperature for 15 min and then keep them at 4 °C. The samples were analysed by a flow cytometer (Becton-Dickinson FACSCalibur, Totowa, NJ, USA) and data were analysed using the FlowJo software.
The Annexin V-FITC/PI dual staining assay on HeLa cells treated with compound 4d was carried out to examine the association of compound 4d-mediated cytotoxicity with induction of apoptosis.

[2] = test system: HeLa cells; assay: ROS generation assay (DCFH-DA); conditions: 0.2 μM, 48 h
Method: ROS generation assay was performed by using the reactive oxygen species assay kit (Beyotime Biotech., Nantong, China). Intracellular ROS generation was tested through dichlorodihydro fluorescein diacetate (DCFH-DA) assay. DCFH-DA is taken up by HeLa cells, and then activated by esterase-mediated cleavage of acetate to form DCFH, which is trapped in the cells. DCFH is converted to fluorescein DCF in the presence of ROS. HeLa cells were seeded in six-well plates and incubated with different concentrations of compound 4d for 48 h. After removing the compound solution, cells were treated with 10 μM of DCFH-DA at 37 °C for 20 min. Subsequently, the cells were washed with PBS for three times and then exposed to light. Immediately after light exposure, the fluorescence intensity of dichlorofluorescein (DCF) was measured with excitation at 488 nm and emission at 525 nm by a flow cytometry (Becton-Dickinson FACSCalibur, Totowa, NJ, USA).
ROS has been reported to be involved in early stages of apoptosis in many cellular systems. […] HeLa cells were exposed to compound 4d at 0 ∼ 0.2 μM concentrations for 48 h and the intracellular fluorescence intensity was quantitatively analysed by flow cytometry. […]

[3] = test system: QSG-7701 cells; assay: MTT cytotoxic assay, normal hepatocyte QSG-7701
Method: Human breast cancer cell line (MDA-MB-231), cervical carcinoma cell line (HeLa), the liver cancer cell line (SMMC-7721) and normal hepatocyte cell line (QSG-7701) were maintained in Dulbecco Modified Eagle Medium (DMEM) containing 4.0 mM L-Glutamine and 4500 mg/L Glucose supplemented with 10% (v/v) foetal bovine serum (FBS) and 100 U/mL penicillin/streptomycin at 37 °C in humidified atmosphere of 5% CO2 and 95% air.
Exponentially growing MDA-MB-231, Hela and SMMC-7721 cell lines were seeded into 96-well plate for 100 μL and treated with different concentrations of the synthetic compounds for 72 h, and then 10 μL of MTT (10 mg/mL) was added and incubation for 3 ∼ 4 h at 37 °C. The generated purple formazan crystals from viable can be dissolved by adding 100 μL DMSO. The plates were swirled gently for 5 min and quantified by measuring the OD of the plates at the wavelength of 540 nm. Each concentration was repeated in three wells and the same experimental condition was provided for all compounds. The results were expressed as IC50 values with standard deviations, which was defined as the concentration at which 50% survival of cells was discerned. Etoposide was co-assayed as positive control.
The in vitro cytotoxic activity of derivatives 3a–d, 4a–h, 5a–h, and 6a–h were evaluated by MTT assay against human breast cancer cell line (MDA-MB-231), cervical carcinoma cell line (HeLa), hepatocarcinoma cell line (SMMC-7721) and human normal hepatocyte cell line (QSG-7701). The anticancer drug etoposide was co-assayed as the positive control. All tested compounds were dissolved in DMSO and the stock solutions were diluted by DMEM medium before treatment of the cultured cells.

[4] = test system: p90RSK, p-p90RSK, BAD, BIM in HeLa cells; assay: Western blot of downstream proteins of ERK; conditions: 0.05, 0.1, 0.2 μM, 48 h
Method: HeLa cells were seeded at a density of 5 × 10^6 cells per well and attached for 8 h, and then treated with different concentrations of compound 4d for 48 h. After the treatment, the cells were harvested and washed twice with PBS. The harvested cells were lysed with radio-immunoprecipitation assay (RIPA) lysis buffer (Beyotime Biotech., Nantong, China) with 1% cocktail (Sigma-Aldrich, St. Louis, MO, USA). Whole-cell protein lysates were prepared and centrifuged at 12,000 rpm for 10 min at 4 °C. The total proteins were determined using Bradford reagent (Bio-Rad Laboratories, Inc., Hercules, CA, USA). Exactly 40 μg of protein per lane was separated through sodium dodecyl sulphate-polyacrylamide gel electrophoresis and then transferred onto a polyvinylidene difluoride membrane (Millipore, Bedford, MA, USA). The membranes were incubated with each antibody and detected through immunoblot analysis. All of the antibodies were purchased from Cell signalling Technology, Inc. (Boston, MA, USA) and diluted in accordance with the manufacturer’s instruction. Proteins were visualised using a C-Digit® imaging system (LI-COR, Lincoln, NE, USA).
In addition, the effect of compound 4d on the downstream proteins of ERK (p90RSK, BAD, and BIM) was also investigated by western blot analysis. It is known that activated ERK1/2 (p-ERK1/2) directly phosphorylates and activates p90RSK, which subsequently decreases the level of pro-apoptotic BH3-only proteins BIM and BAD and inhibits their apoptosis-promoting activity.

Compound: CC(=O)NNC(=O)C12CCC(C)C(C)C1C1=CCC3C4(C)Cc5cc6cc(Cl)ccc6nc5C(C)(C)C4CCC3(C)C1(C)CC2 (centres unmarked) [Compound 4d, N-[5′-chloro-ursa-12-en-(2,3)-quinoline-28-oyl]-acetohydrazide]
- percentage of early and late apoptotic cells ([1]; 0.05 μM): 37.56%
- percentage of early and late apoptotic cells ([1]; 0.1 μM): 58.31%
- percentage of early and late apoptotic cells ([1]; 0.2 μM): 74.22%
- increase of mean fluorescence intensity compared to the control group [2]: 84%
- % relative ROS raised cells ([2]; control 13.18): 49.66%
- IC50 ([3]; Homo sapiens, QSG7701, MTT, normal hepatocyte cell line): 10.8 ± 0.72 µM
- Selectivity ([3]; IC50 (QSG-7701)/IC50 (HeLa)): 134.5
- expression level of p90RSK [4]: significantly decreased
- expression level of p-p90RSK [4]: significantly decreased
- level of BAD [4]: upregulated
- level of BIM [4]: upregulated

Source: article PMC6522941, “Design, synthesis, and anticancer evaluation of novel quinoline derivatives of ursolic acid with hydrazide, oxadiazole, and thiadiazole moieties as potent MEK inhibitors” (Journal of Enzyme Inhibition and Medicinal Chemistry, 2019)
